Experiments:
maize cultivar DKC 2931 = assay: Regular maize pot experiment (potting soil); assay type: in vivo; conditions: low phosphate, 10 μM compound
Experimental: (§1) All Arabidopsis plant experiments were performed using the Arabidopsis thaliana Columbia-0 background. The Arabidopsis pSPX1::GUS line is described in the […] 2008, 54: 965-975. For rice, the cultivar Nipponbare was used. For maize, the cultivars DKC 2931 and 8104 were used for regular pot experiments and sand-based pot experiments, respectively. For soybean, the cultivar Primus was used. […] The medium was solidified due to the addition of 0.6% Gelrite, unless stated otherwise. In case of vertical plates (root length and root hair measurements), the medium was supplied with 0.5% of sucrose and 1 μM (low phosphate, 1 μM KH2PO4, 9.9 mM KCl), 10 μM (low phosphate 10 μM KH2PO4, 9.9 mM KCl) or 1.25 mM KH2PO4 (high phosphate). Arabidopsis seeds were stratified for 2 days at 4° C. before germination. Seedlings were germinated in climate-controlled growth chambers at 22° C. under continuous light ([…] m^−2 s^−1). Husked rice seeds were germinated on wetted Whatman paper for 2 days at 37° C. and then transferred to Sterivent boxes or square Petri dishes with solid medium. Maize and soybean seeds were wetted 24 hours at room temperature prior to sowing in pots.
(§2) Regular Arabidopsis, soybean and maize pot experiments used an unfertilized potting soil, which was supplemented at the start of the experiment with 50 ml H2O containing 0.25 g/l NH4NO3 and 0.44 g/l (high phosphate) or no (maize and soybean) or 0.11 g/l KH2PO (Arabidopsis) for low phosphate conditions. For the sand-based maize pot experiment, sand was supplemented with 50 ml H2O containing 0.25 g/l NH4NO3 and 0.38 g/l (high phosphate) or 0.02 g/l (low phosphate) KH2PO4. Potassium was balanced via addition of KCl. Compound concentration was 10 μM, calculated based on the total water content after watering, and was added at the start of the experiment (Arabidopsis) or once a week (maize). Indexed chlorophyll contents were received via a SPAD 502 Plus Chlorophyll Meter. All parameters in the sand experiment, except the rate of leaf 4 (measured the first 4 days after emergence), were measured 19 days after sowing. Measurements in the pot experiments with potting soil were done after 4 weeks of growth, except for leaf 5, which was measured at 26 days. The long term maize pot experiment was performed on the automated Phenovision platform (see Mertens et al, 2021, https://doi.org/10.3389/fpls.2021.640914) with maize cultivars B104 and DKC2931. End point measurements occurred after 90 days (B104) or 70 days (DKC2931). Plants were grown on an unfertilized potting soil, which was fertilized bi-weekly with 50 mL modified Hoagland solution (2.5× concentrated; but with 0.25 mM KH2PO4).

maize cultivar DKC2931 = assay: Long term maize pot experiment, Phenovision platform, DKC2931; assay type: in vivo; conditions: DKC2931, end point after 70 days
Experimental: as §2

[1] = tested on: SPX1 phosphate starvation biomarker (pSPX1::GUS); assay: Chemical activity assessment: SPX1 suppression in Arabidopsis pSPX1::GUS reporter line (GUS stained area); assay type: in vivo, Arabidopsis thaliana; conditions: 50 μM compound, low phosphate modMS liquid medium, 96-well, 7 days after germination; low phosphate control of same plate
Experimental: as §1
For the chemical activity assessment 3 to 8 seeds per well of Arabidopsis pSPX1::GUS line were sown in 96-well plates containing 150 μl of low phosphate modMS liquid medium containing 1% of sucrose. Compounds were added in 50 μM concentration, starting from a 5 mM stock of compounds solved in DMSO. Different chemical substances were separately added to different wells. Per plate, 16 control wells were used, 8 containing only the low phosphate medium and 1% DMSO, and 8 containing high phosphate medium and 1% DMSO. 7 days after germination, plates were scanned using a flatbed scanner (EPSON Expression 11000XL) and analyzed for leaf size. After scanning, the growth medium was replaced by GUS staining solution (see Plant Mol. Biol. Rep. 1994, 12: 37-42 for details) and incubated for 1.5 hours at 37° C. The plates were scanned a second time and analyzed for GUS signal area. Measurements of both leaf area and GUS signal area were conducted by filtering out and measure the green and blue signal, respectively using ImageJ software. If the green leaf area was 50% or less than the control, samples were omitted. Additionally, all results were visually screened for leaf size and GUS signal.
To identify new substances that suppress the expression of the SPX1 phosphate starvation biomarker, we used an Arabidopsis SPX1 reporter line pSPX1::GUS. […] This observation was confirmed in two experimental repeats.

maize cultivar B104 = assay: Long term maize pot experiment, Phenovision platform, B104; assay type: in vivo; conditions: B104, end point after 90 days
Experimental: as §2

[2] = tested on: Arabidopsis thaliana Columbia-0; assay: Root hair number and length quantification, Arabidopsis vertical plate; assay type: in vivo; conditions: for activity at 1 µM: 1 μM compound
Experimental: as §1
Roots were imaged using a stereomicroscope or a VHX-6000. Number and length of the root hairs parallel to the medium surface was determined at 4 to 6 mm above the root meristem. Root hair length was measured using the ImageJ software.

[3] = tested on: Arabidopsis thaliana Columbia-0; assay: Arabidopsis horizontal plate leaf area assay; assay type: in vivo; conditions: Arabidopsis horizontal plates (Table 4); control without compound 63
Experimental: as §1
Arabidopsis primary root growth experiments were done on MS1/2 on vertical standing plates and roots were measured 11 days after germination. Roots were imaged using a flatbed scanner (EPSON Expression 11000XL) and root length was measured using ImageJ software. Arabidopsis shoot biomass was determined in 11 days after germination and growth on vertical standing plates with modMS. Arabidopsis leaf area was measured 21 days after germination on horizontal plates with modMS medium. Plates were scanned from the top using a flatbed scanner (EPSON Expression 11000XL) and the visible leaf area was measured using ImageJ software. Rice plate experiments used vertically standing Petri dishes containing MS1/2 medium (low phosphate—0.001 mM) solidified with 0.8% washed agar. Plant height was measured 11 days after germination. Rice box experiments used modMS medium and a low phosphate condition of 0.025 mM phosphate. Plant height was measured 13 days after germination. All growth experiments occurred with 10 μM of compound and in low phosphate conditions, unless stated otherwise. Controls always received the same DMSO concentration.

[4] = Arabidopsis thaliana, read-out: Total root hair length per root (in % compared to the control)
[5] = Arabidopsis vertical plate, high phosphate

**Q.** Which Plant height (maize cultivar DKC 2931; 4 weeks) does the source give for CCN(CCCN)c1ccccc1 [Example 2] here?
**A.** 62 cm

**Q.** What about the Shoot weight (maize cultivar DKC 2931; 4 weeks) of the same molecule?
**A.** 4.5 g

**Q.** And the “Leaf 5” value (maize cultivar DKC 2931; 26 days)?
**A.** 46 cm

**Q.** What about the Biomass (maize cultivar DKC2931) of the same molecule?
**A.** 31 g

**Q.** What about the Plant height (maize cultivar DKC2931) of the same molecule?
**A.** 1010 mm

**Q.** And the “Plants with developed ears” value (maize cultivar DKC2931)?
**A.** 100%

**Q.** And the Sum of leaf length (maize cultivar DKC2931)?
**A.** 3950 mm

**Q.** What about the “GUS (SPX1) stained area normalized to the number of seeds” value (“GUS (SPX1) stained area normalized” for short) [1] of the same molecule?
**A.** 21 pixels

**Q.** And the Biomass (maize cultivar B104)?
**A.** 37 g

**Q.** And the Plant height (maize cultivar B104)?
**A.** 719 mm

**Q.** And the “Plants with developed ears” value (maize cultivar B104)?
**A.** 62%

**Q.** What about the Sum of leaf length (maize cultivar B104) of the same molecule?
**A.** 6050 mm

**Q.** And the activity at 1 µM [2, 4]?
**A.** 886%

**Q.** And the “Average root hair length per root in high phosphate conditions” value [2, 5]?
**A.** 0.28 mm

**Q.** And the “Root hair number in high phosphate conditions (one plane in 2 mm region)” value [2, 5]?
**A.** 8

**Q.** What about the “Total root hair length per root in high phosphate conditions” value [2, 5] of the same molecule?
**A.** 0.27 cm

**Q.** NCCCNc1ccccc1 [Example 3] was tested. Which Average leaf area [3] did it give?
**A.** 69 mm^2

**Q.** With CN(CCCN)c1ccccc1 [Example 4] as the molecule, how does the Average leaf area [3] read?
**A.** 72 mm^2

**Q.** Which Average leaf area [3] does the source give for CCN(CCCNC)c1ccccc1 [Example 5] here?
**A.** 65 mm^2

**Q.** How did the “GUS (SPX1) stained area normalized” value [1] turn out when CCN(CCCNC(=O)CNC(=O)c1cc(C)cc(C)c1)c1ccccc1 [Example 6] was run?
**A.** 8 pixels

**Q.** CCN(C)c1ccccc1 [Example 9] was tested. Which activity at 1 µM [2, 4] did it give?
**A.** 390%

**Q.** And the activity at 3 µM ([2]; Arabidopsis thaliana, 3 μM compound, read-out: Total root hair length per root (in % compared to the control))?
**A.** 313%

**Q.** And the activity at 10 µM ([2]; Arabidopsis thaliana, 10 μM compound, read-out: Total root hair length per root (in % compared to the control))?
**A.** 758%

**Q.** CN(CCCNC(=O)CSc1nnnn1-c1ccccc1)c1ccccc1 [Example 10] was tested. Which “GUS (SPX1) stained area normalized” value [1] did it give?
**A.** 298 pixels

**Q.** With Cc1ccccc1-c1nnc(SCC(=O)NCCCN(C)c2ccccc2)n1C [Example 11] as the molecule, how does the “GUS (SPX1) stained area normalized” value [1] read?
**A.** 800 pixels
